We go through four molecules from article PMC3666986 (Clinical Medicine Insights. Pediatrics, 2010).

The AUC is the area under the concentration-time curve, a measure of exposure. High values mean high exposure, low ones low exposure. In general, Tmax refers to the time at which the peak concentration occurs.

Entries after “also recorded” stand apart in the source; their conditions may differ. Read-outs that look alike come from different tables or passages of the source. Bounds are passed on as bounds.

For series [1], the system named is glucocorticoid receptor. To be noted: receptor affinity of dexamethasone = 100; cited from earlier work.
For series [2] the following is noted: Advair HFA; cited from earlier work.
For series [3] the following is noted: cited from earlier work.
The conditions of series [4]: cited from earlier work. The source holds these as a separate data set.
The conditions of series [5]: adults, ciclesonide via HFA-MDI with AeroChamber Plus; cited from earlier work.
The format of series [6] is in vivo, human. To be noted: for AUC: AUCτ, des-CIC in serum, Day 7, τ 24 h, mean ± SEM, N 29; for systemic accumulation: once daily administration of ciclesonide to children, with or without spacer; for time serum concentration detectable/observed after inhalation: present study, treatment not specified (discussion).
A short description of series [7]: Safety and tolerability monitoring. The format is in vivo, human.
The conditions of series [8]: healthy subjects and patients with asthma; cited from earlier work.
A short description of series [9]: Pulmonary function tests. The format is in vivo, human.
[10] abbreviates: des-CIC, Treatment A 160 μg with spacer / Treatment C 160 μg no spacer, ANOVA.
Where [11] appears, read: des-CIC, ciclesonide 80 μg with spacer vs 160 μg without spacer.
The mark [12] stands for this setting: des-CIC, ciclesonide 160 μg with spacer vs 160 μg without spacer.

Take `C[C@@H]1C[C@H]2[C@@H]3CCC4=CC(=O)C=C[C@]4(C)[C@@]3(F)[C@@H](O)C[C@]2(C)[C@@]1(O)C(=O)CO` [dexamethasone]: in series [1], the “relative glucocorticoid receptor affinity” value was 100.
Consider `CCC(=O)O[C@]1(C(=O)SCF)[C@H](C)C[C@H]2[C@@H]3C[C@H](F)C4=CC(=O)C=C[C@]4(C)[C@@]3(F)[C@@H](O)C[C@@]21C` [fluticasone propionate], for which, in series [2], the “increase of AUC0–last with spacer” value was 406% and the “increase of Cmax with spacer” value was 210%.
Take `C[C@]12C=CC(=O)C=C1CC[C@@H]1[C@@H]2[C@@H](O)C[C@@]2(C)[C@H]1C[C@H]1O[C@@H](C3CCCCC3)O[C@]12C(=O)CO` [des-CIC, desisobutyryl-ciclesonide]: the “bound to plasma protein” value in [3] was “About 99%”. Also, the oral bioavailability entry in [4] is “less than 1%”. Also, the “effect of spacer on PK” value in [5] is listed as “did not influence the PK”. For the same molecule, the “time up to which serum concentrations were detectable” value in series [6] (des-CIC, 80 μg ciclesonide (Treatment B), LLOQ 0.01 μg/L) is “up to 6 h”. In series [6] (des-CIC, 160 μg ciclesonide (Treatment A and Treatment C), LLOQ 0.01 μg/L), the “time up to which serum concentration-time profile curves were obtained” value is “up to 12 h”. In [6] (setting [10]), the “AUCτ Ratio [% Ref]” value worked out at 127 % Ref and the “Cmax Ratio [% Ref]” value was determined as 155 % Ref. In series [6] (setting [11]), the “dose-normalized Cmax higher with spacer than without spacer” value came to 63% and the “dose-normalized systemic exposure (AUCτ) higher with spacer than without spacer” value was 26%. For the same molecule, in series [6] (setting [12]), the “dose-normalized Cmax higher with spacer than without spacer” value is 55% and the “dose-normalized systemic exposure (AUCτ) higher with spacer than without spacer” value is 27%. The area under the curve (AUC) in series [6] (human, serum, inhaled, 80 ug, Treatment B 80 μg CIC with spacer) was found to be 0.316 ± 0.022 ng·h/mL. For the same molecule, in series [6] (human, serum, inhaled, 160 ug, Treatment C 160 μg CIC no spacer), the exposure (AUC) was found to be 0.542 ± 0.042 ng·h/mL. Moreover, in series [6] (human, serum, inhaled, tmax, des-CIC, similar for all treatments), the Tmax was 42 min. Further, in [6], the systemic accumulation entry is on record as “does not lead to systemic accumulation” and the “time serum concentration detectable/observed after inhalation” value is “up to 12 h”. The “relative glucocorticoid receptor affinity” value in [1] is on record as 1200.
As for `CC(C)C(=O)OCC(=O)[C@@]12O[C@H](C3CCCCC3)O[C@@H]1C[C@H]1[C@@H]3CCC4=CC(=O)C=C[C@]4(C)[C@H]3[C@@H](O)C[C@@]12C` [ciclesonide], the “bound to plasma protein” value in series [3] is listed as “About 99%”. Further, the “relation of AEs to study medication” value in series [7] (assessed by investigator and sponsor) is “not related”. Besides, in [7] (ciclesonide 80 or 160 μg once daily, 7-day periods, with or without spacer), the tolerability entry is “well tolerated”. Moreover, the “number of patients reporting AEs” value in [7] (during the three treatment periods, 37 patients) was 24. Besides, in [7] (whole study), the “clinically relevant abnormalities (laboratory values) / adverse drug reactions” value is “No clinically relevant abnormalities or adverse drug reactions; also recorded: No clinically relevant abnormalities”. Besides, the lung deposition result in [8] is on record as “more than 50%”. In addition, the oral bioavailability in series [4] is given as < 1%. Moreover, in series [6], the systemic accumulation result is “does not lead to systemic accumulation” and the “time serum concentration detectable/observed after inhalation” value was “about 3 h”. For the same molecule, the “time up to which serum concentrations were detectable” value in series [6] (parent ciclesonide, Treatment A and C (160 μg), LLOQ 0.01 μg/L) is “up to 3 h”. Also, the “time up to which serum concentrations were measurable” value in series [6] (parent ciclesonide, Treatment B (80 μg with spacer), LLOQ 0.01 μg/L) is “up to 1.5 h”. Further, the “change in lung function” value in series [9] (between screening, Day 7 of each treatment period, and study end) was “did not change to any relevant extent”. The “FEV1 at study end” value in [9] (mean ± SD, screening value 1.81 ± 0.44) is 1.76 ± 0.42 L.
